Measured values taken from ChEMBL document CHEMBL3817797, “Crystal Structure of Human E-Cadherin-EC1EC2 in Complex with a Peptidomimetic Competitive Inhibitor of Cadherin Homophilic Interaction” (J Med Chem, 2016).
Activity calls are given as the source filed them. The rule behind the calls is not given here.

What was measured:
[1] = molecular target: T1, Cadherin-1 (Homo sapiens) (UniProt P12830); assay: Binding affinity to E-cadherin in human OAW42 cells assessed as effect on PI3K/Akt signalling activation by measuring phosphorylation of Akt at Ser-473 residue at 1 to 2 mM by immunoblot analysis; format: cell-based; conditions: OAW-42
T1 sequence (whole entry): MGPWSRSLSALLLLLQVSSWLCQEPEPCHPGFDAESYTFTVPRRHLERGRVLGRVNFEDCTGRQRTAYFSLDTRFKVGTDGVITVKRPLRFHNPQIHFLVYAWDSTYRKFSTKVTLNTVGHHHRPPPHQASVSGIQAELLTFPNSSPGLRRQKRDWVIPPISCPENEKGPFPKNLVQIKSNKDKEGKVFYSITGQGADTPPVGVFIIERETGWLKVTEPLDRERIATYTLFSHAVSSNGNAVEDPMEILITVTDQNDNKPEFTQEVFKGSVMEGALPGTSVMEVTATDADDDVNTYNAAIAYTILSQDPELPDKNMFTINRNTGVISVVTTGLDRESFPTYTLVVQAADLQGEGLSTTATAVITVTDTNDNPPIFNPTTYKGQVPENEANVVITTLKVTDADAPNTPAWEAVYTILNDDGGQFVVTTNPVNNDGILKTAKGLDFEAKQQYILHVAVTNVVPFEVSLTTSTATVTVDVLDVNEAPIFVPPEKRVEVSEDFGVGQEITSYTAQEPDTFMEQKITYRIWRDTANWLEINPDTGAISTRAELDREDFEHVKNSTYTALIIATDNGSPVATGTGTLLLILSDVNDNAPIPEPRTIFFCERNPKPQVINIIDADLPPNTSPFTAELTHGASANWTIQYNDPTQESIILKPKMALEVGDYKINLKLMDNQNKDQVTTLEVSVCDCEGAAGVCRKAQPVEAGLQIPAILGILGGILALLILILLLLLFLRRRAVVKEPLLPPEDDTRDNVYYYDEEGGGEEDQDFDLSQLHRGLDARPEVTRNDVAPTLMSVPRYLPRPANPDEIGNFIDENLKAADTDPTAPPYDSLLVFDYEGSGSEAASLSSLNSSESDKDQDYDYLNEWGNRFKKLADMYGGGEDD

[2] = molecular target: T1, Cadherin-1 (Homo sapiens); assay: Inhibition of E-cadherin-Fc chimeric protein binding to E-cadherin in human OAW42 cells at 2 mM preincubated for 1 hr followed by E-cadherin-Fc addition measured after 2 hrs by ELISA relative to control; format: cell-based; conditions: OAW-42
[3] = molecular target: T2, Cadherin-2 (Homo sapiens) (UniProt P19022); assay: Inhibition of recombinant N-cadherin-Fc chimeric protein (unknown origin) homodimerization at 10 uM preincubated for 30 mins followed by N-cadherin-Fc addition by surface plasmon resonance analysis relative to control
T2 sequence (whole entry): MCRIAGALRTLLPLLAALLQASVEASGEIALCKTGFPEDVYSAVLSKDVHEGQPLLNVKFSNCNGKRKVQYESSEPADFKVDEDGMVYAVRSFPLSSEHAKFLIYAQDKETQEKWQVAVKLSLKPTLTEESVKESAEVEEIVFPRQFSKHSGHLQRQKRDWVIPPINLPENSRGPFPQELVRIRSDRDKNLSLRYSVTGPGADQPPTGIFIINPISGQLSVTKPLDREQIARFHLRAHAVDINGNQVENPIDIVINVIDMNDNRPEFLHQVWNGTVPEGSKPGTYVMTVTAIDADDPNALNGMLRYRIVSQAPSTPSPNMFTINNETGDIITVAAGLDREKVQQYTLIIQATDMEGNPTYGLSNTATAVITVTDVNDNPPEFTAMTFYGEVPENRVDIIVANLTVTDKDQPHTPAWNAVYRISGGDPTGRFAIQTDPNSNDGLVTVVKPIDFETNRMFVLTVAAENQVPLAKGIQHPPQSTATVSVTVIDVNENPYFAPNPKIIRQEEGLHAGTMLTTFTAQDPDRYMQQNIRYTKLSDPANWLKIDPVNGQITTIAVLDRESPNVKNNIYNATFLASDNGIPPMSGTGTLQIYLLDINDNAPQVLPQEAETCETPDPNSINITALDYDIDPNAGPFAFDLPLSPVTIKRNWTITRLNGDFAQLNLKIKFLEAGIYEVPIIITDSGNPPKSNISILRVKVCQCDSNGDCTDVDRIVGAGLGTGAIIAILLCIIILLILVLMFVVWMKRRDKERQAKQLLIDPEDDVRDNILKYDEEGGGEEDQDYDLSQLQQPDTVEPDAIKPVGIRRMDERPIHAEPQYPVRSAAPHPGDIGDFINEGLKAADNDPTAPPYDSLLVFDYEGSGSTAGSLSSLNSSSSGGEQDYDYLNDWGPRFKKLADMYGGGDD

[4] = molecular target: T2, Cadherin-2 (Homo sapiens); assay: Inhibition of N-cadherin-Fc chimeric protein binding to N-cadherin in human SKOV3 cells at 2 mM preincubated for 1 hr followed by N-cadherin-Fc addition measured after 2 hrs by ELISA relative to control; format: cell-based; conditions: SK-OV-3
[5] = molecular target: T2, Cadherin-2 (Homo sapiens); assay: Inhibition of N-cadherin-Fc chimeric protein binding to N-cadherin in human SKOV3 cells at 1 mM preincubated for 1 hr followed by N-cadherin-Fc addition measured after 2 hrs by ELISA relative to control; format: cell-based; conditions: SK-OV-3

## CC[C@H](C)[C@H](NC(=O)C[C@@H]1NC(=O)[C@H](CNC(=O)[C@@H](N)CC(=O)O)N(Cc2ccccc2)C1=O)C(=O)NC(C)(C)C
[1]
  Activity: Active
[2]
  inhibition: 50%
[3]
  inhibition: 55%
[4]
  inhibition: 84%
[5]
  inhibition: 65%

## CC(=O)N[C@H]1CSSC[C@@H](C(N)=O)NC(=O)[C@H](C(C)C)NC(=O)[C@H](C)NC(=O)[C@H](Cc2c[nH]cn2)NC1=O
[2]
  inhibition: 30%
[3]
  inhibition: 28%
[4]
  inhibition: 50%
[5]
  inhibition: inactive
